From patent US8557796B2, “Substituted 1-oxa-2,8-diaza-spiro [4,5] dec-2-ene derivatives and related treatment methods” (Gruenenthal GmbH, priority 2001, dated 2013) come the findings set out here.

For the first assay, the target named is T1, NA transporter (Rattus norvegicus, UniProt Q9WTR4).
T1 construct: synaptosomes from rat brain regions were freshly isolated; from tissue; host or cells: P2 synaptosome fraction from hypothalamus of male rat brain
T1 sequence (Q9WTR4 1-597): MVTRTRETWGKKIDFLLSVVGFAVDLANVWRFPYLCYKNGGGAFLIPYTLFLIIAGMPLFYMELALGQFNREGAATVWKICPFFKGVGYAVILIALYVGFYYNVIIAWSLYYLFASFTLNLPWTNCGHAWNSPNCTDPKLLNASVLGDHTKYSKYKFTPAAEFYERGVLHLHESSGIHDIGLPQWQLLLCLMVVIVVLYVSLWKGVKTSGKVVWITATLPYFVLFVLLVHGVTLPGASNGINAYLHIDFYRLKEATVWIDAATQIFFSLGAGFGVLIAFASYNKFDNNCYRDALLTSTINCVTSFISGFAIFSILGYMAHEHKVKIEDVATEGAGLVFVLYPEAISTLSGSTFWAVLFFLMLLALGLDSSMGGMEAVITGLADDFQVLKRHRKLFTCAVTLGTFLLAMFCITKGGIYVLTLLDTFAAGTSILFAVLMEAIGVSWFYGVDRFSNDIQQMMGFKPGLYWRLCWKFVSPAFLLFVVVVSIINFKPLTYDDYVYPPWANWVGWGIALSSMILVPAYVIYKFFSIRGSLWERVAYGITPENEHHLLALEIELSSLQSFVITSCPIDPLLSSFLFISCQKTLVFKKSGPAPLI
Description: Noradrenalin uptake inhibition (NA-uptake) in synaptosomes. It is filed as biochemical. The following applies: rat hypothalamus synaptosomes. An excerpt: Tests on Noradrenalin Uptake Inhibition (NA-Uptake Inhibition)
In order to be able to carry out these in vitro studies, synaptosomes from rat brain regions were freshly isolated.
The term inhibition denotes how much of the control response was suppressed. Read a low inhibition as little suppression. The compound `Cc1onc(-c2c(Cl)cccc2Cl)c1C(=O)N1CCC2(CC1)CC(C(=O)NCc1cccs1)=NO2` [Example 197, 8-[3-(2,6-dichloro-phenyl)-5-methyl-isoxazole-4-carbonyl]-1-oxa-2,8-diaza-spiro[4,5]dec-2-ene-3-carboxylic acid (thiophen-2-ylmethyl)-amide] showed an inhibition at 10 µM of 41%.
Compound `CC(NC(=O)C1=NOC2(CCN(S(=O)(=O)c3ccc(F)cc3)CC2)C1)C(=O)Nc1ccc2ccccc2c1` (centres unmarked) [Example 198, 8-(4-fluoro-benzenesulphonyl)-1-oxa-2,8-diaza-spiro[4,5]dec-2-ene-3-carboxylic acid [1-(naphthalen-2-ylcarbamoyl)ethyl]-amide] came in with an inhibition at 10 µM of 52%.
Consider `O=C(NC1CCCC1OCc1ccccc1)C1=NOC2(CCN(S(=O)(=O)c3ccc(F)cc3)CC2)C1` (centres unmarked) [Example 199], for which the “NA-uptake, 10 μM, % inhibition” value is 78%.
Same read-out and setting: the same measure for `COC(=O)C(Cc1ccc(Cl)cc1)NC(=O)C1=NOC2(CCN(S(=O)(=O)c3ccc(OC)cc3)CC2)C1` (centres unmarked) [Example 200]: 43%.
In turn, `O=C(NC1CCCC1OCc1ccccc1)C1=NOC2(CCN(S(=O)(=O)c3cccc(C(F)(F)F)c3)CC2)C1` (centres unmarked) [Example 201, 8-(3-trifluoromethyl-benzenesulphonyl)-1-oxa-2,8-diaza-spiro[4,5]dec-2-ene-3-carboxylic acid (2-benzyloxy-cyclopentyl)-amide] registered an inhibition at 10 µM of 58%.
Still for that read-out and setting: the same measure for `O=C(NCc1ccccc1)C1=NOC2(CCN(C(=O)c3cccnc3Oc3ccccc3)CC2)C1` [Example 203, 8-(2-phenoxy-pyridine-3-carbonyl)-1-oxa-2,8-diaza-spiro[4,5]dec-2-ene-3-carboxylic acid benzylamide]: 58%; for `O=C(NCC1CC1)C1=NOC2(CCN(C(=O)c3ccc4ccccc4c3)CC2)C1` [Example 204, 8-(naphthalene-2-carbonyl)-1-oxa-2,8-diaza-spiro[4,5]dec-2-ene-3-carboxylic acid cyclopropylmethyl-amide]: 48%; for `O=C(NCc1ccccc1)C1=NOC2(CCN(C(=O)c3ccc(F)c(Cl)c3)CC2)C1` [Example 205, 8-(3-chloro-4-fluorobenzoyl)-1-oxa-2,8-diaza-spiro[4,5]dec-2-ene-3-carboxylic acid benzylamide]: 46%.
The compound `O=C(NCc1ccccc1F)C1=NOC2(CCN(S(=O)(=O)c3ccc(F)cc3)CC2)C1` [Example 207, 8-(4-fluoro-benzenesulphonyl)-1-oxa-2,8-diaza-spiro[4,5]dec-2-ene-3-carboxylic acid 2 fluorobenzylamide] yielded an inhibition at 10 µM of 50%.
With `O=C(NCc1cccs1)C1=NOC2(CCN(C(=O)c3cccc(Cl)c3)CC2)C1` [Example 208], the “NA-uptake, 10 μM, % inhibition” value is 52%.
On the same count and under the same terms, the same measure for `O=C(C1=NOC2(CCN(S(=O)(=O)c3cc(Cl)ccc3Cl)CC2)C1)N1CCN(Cc2ccccc2)CC1` [Example 209, (4-benzyl-piperazin-l-yl)-[8-(2,5-dichloro-benzenesulphonyl)-1-oxa-2,8-diaza-spiro[4,5]dec-2-en-3-yl]-methanone]: 51%.
Compound `O=C(NCc1ccccc1)C1=NOC2(CCN(S(=O)(=O)c3cccc(Cl)c3)CC2)C1` [Example 210, 8-(3-chloro-benzenesulphonyl)-1-oxa-2,8-diaza-spiro[4,5]dec-2-ene-3-carboxylic acid benzylamide] showed an inhibition at 10 µM of 42%.
Consider `O=C(C1=NOC2(CCN(S(=O)(=O)c3cccc(C(F)(F)F)c3)CC2)C1)N1CCC(Cc2ccccc2)CC1` [Example 211, (4-benzyl-piperidin-l-yl)-[8-(3-trifluoromethyl-benzene-sulphonyl)-1-oxa-2,8-diaza-spiro[4,5]dec-2-en-3-yl]-methanone], for which the “NA-uptake, 10 μM, % inhibition” value is on record as 49%.
With `O=C(NCc1ccccc1)C1=NOC2(CCN(C(=O)c3ccc(Br)cc3)CC2)C1` [Example 212, 8-(4-bromo-benzoyl)-1-oxa-2,8-diaza-spiro[4,5]dec-2-ene-3-carboxylic acid benzylamide], the inhibition at 10 µM stood at 55%.
Still for that read-out and setting: then `CC(NC(=O)C1=NOC2(CCN(S(=O)(=O)c3ccc(F)cc3)CC2)C1)c1ccc([N+](=O)[O-])cc1` (centres unmarked) [Example 213, 8-(4-fluoro-benzenesulphonyl)-1-oxa-2,8-diaza-spiro[4,5]dec-2-ene-3-carboxylic acid [1-(4-nitro-phenyl)-ethyl]-amide], with 46%; and `CC(C)CC(NC(=O)C1=NOC2(CCN(S(=O)(=O)c3cccc(C(F)(F)F)c3)CC2)C1)C(=O)OC(C)(C)C` (centres unmarked) [Example 214, 4-methyl-2-{[8-(3-trifluoromethyl-benzenesulphonyl)-1-oxa-2,8-diaza-spiro[4,5]dec-2-ene-3-carbonyl]-amino}-pentanoic acid tert-butyl ester], with 45%; and `O=C(C1=NOC2(CCN(S(=O)(=O)Cc3ccccc3)CC2)C1)N1CC=C(c2ccc(F)cc2)CC1` [Example 215, [4-(4-fluoro-phenyl)-3,6-dihydro-2H-pyridin-1-yl]-(8-phenylmethanesulphonyl-1-oxa-2,8-diaza-spiro[4,5]dec-2-en-3-yl)-methanone], with 42%.
On the same count and under the same terms, the same measure for `CCN(CCNC(=O)C1=NOC2(CCN(S(=O)(=O)N(C)C)CC2)C1)c1cccc(C)c1` [Example 216, 8-dimethylsulphamoyl-1-oxa-2,8-diaza-spiro[4,5]dec-2-ene-3-carboxylic acid [2-(ethyl-m-tolyl-amino)-ethyl]amide]: 40%; for `Cc1cc(C(=O)N2CCC3(CC2)CC(C(=O)NCc2ccccc2)=NO3)c(C)o1` [Example 217, 8-(2,5-dimethyl-furan-3-carbonyl)-1-oxa-2,8-diaza-spiro[4,5]dec-2-ene-3-carboxylic acid benzylamide]: 40%.
Take `O=C(C1=NOC2(CCN(S(=O)(=O)c3ccc(F)cc3)CC2)C1)N1CCN(C2CCCCCC2)CC1` [Example 218]: the “NA-uptake, 10 μM, % inhibition” value is listed as 44%.

The target in the next assay is T2, 5HT-uptake (Rattus norvegicus, UniProt P31652).
T2 construct: synaptosomes from rat brain regions were freshly isolated; from tissue; host or cells: P2 synaptosome fraction from rat brain regions
T2 sequence (P31652 whole entry): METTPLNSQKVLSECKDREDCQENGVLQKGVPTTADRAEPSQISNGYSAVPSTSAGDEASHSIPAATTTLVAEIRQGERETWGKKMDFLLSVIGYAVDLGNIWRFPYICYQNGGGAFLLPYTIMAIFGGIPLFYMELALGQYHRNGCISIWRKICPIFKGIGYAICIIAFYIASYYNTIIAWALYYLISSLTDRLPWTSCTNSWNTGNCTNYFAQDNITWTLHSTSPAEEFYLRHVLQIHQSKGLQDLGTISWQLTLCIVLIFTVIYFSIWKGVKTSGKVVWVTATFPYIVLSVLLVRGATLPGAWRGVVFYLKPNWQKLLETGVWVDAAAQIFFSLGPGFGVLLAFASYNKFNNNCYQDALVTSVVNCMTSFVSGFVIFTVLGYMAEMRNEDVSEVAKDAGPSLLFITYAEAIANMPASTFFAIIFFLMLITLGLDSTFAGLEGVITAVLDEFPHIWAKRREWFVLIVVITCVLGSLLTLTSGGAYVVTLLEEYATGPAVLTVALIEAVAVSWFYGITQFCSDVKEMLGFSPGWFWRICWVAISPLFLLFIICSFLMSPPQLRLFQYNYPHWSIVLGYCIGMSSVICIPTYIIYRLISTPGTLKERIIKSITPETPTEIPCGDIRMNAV
Description: Serotonin uptake inhibition (5HT uptake) in synaptosomes. It is filed as biochemical. The following applies: rat brain synaptosomes.
Description: Tests on Serotonin Uptake (5HT Uptake Inhibition)
For the compound `COC(=O)C(Cc1c[nH]c2ccccc12)NC(=O)C1=NOC2(CCN(S(=O)(=O)c3ccc(OC(F)(F)F)cc3)CC2)C1` (centres unmarked) [Example 1, 3-(1H-indo1-3-yl)-2-{[8-(4-trifluoromethoxy-benzene-sulphonyl)-1-oxa-2,8-diaza-spiro[4,5]dec-2-ene-3-carbonyl]-amino}-propionic acid methyl ester], the “5HT-uptake, 10 μM, % inhibition” value is on record as 47%.
Still for that read-out and setting: the same measure for `CCOP(=O)(Cc1ccc(NC(=O)C2=NOC3(CCN(S(=O)(=O)Cc4ccccc4)CC3)C2)cc1)OCC` [Example 2]: 55%; for `O=C(C1=NOC2(CCN(S(=O)(=O)Cc3ccccc3)CC2)C1)N1CCN(Cc2ccc3ccccc3c2)CC1` [Example 6, (4-naphthalen-2-ylmethyl-piperazin-l-yl)-(8-phenylmethane-sulphonyl-1-oxa-2,8 diaza-spiro[4,5]dec-2-en-3-yl)-methanone]: 54%.
On to `CCN(CC)c1ccc(C(=O)NNC(=O)C2=NOC3(CCN(S(=O)(=O)c4cccs4)CC3)C2)cc1` [Example 10, 4-diethylamino-benzoic acid N′-[8-(thiophene-2-sulphonyl)-1-oxa-2,8-diaza-spiro[4,5]dec-2-ene-3-carbonyl]-hydrazide], for which the inhibition at 10 µM was 40%.
For `CN(CCc1c[nH]c2ccccc12)C(=O)C1=NOC2(CCN(S(=O)(=O)c3ccc(OC(F)(F)F)cc3)CC2)C1` [Example 16, 8-(4-trifluoromethoxy-benzenesulphonyl)-1-oxa-2,8-diaza-spiro[4,5]dec-2-ene-3 carboxylic acid [2-(1 H-indo1-3-yl)-ethyl]-methyl-amide], the “5HT-uptake, 10 μM, % inhibition” value turned out to be 60%.
On to `CC(=O)NCCNC(=O)C1=NOC2(CCN(S(=O)(=O)c3cc(F)ccc3C)CC2)C1` [Example 17, 8-(5-fluoro-2-methyl-benzenesulphonyl)-1-oxa-2,8-diaza-spiro[4,5]dec-2-ene-3 carboxylic acid (2-acetylamino-ethyl)-amide], for which testing at 10 µM gave an inhibition of 46%.
Same read-out and setting: the same measure for `Cc1ccc([N+](=O)[O-])cc1S(=O)(=O)N1CCC2(CC1)CC(C(=O)NCCN(C)C)=NO2` [Example 19, 8-(2-methyl-5-nitro-benzenesulphonyl)-1-oxa-2,8-diaza-spiro[4,5]dec-2-ene-3 carboxylic acid (2-dimethylamino-ethyl)-amide]: 80%.
Same read-out and setting: the same measure for `O=C(NCc1cccc(F)c1)C1=NOC2(CCN(S(=O)(=O)c3cccs3)CC2)C1` [Example 24, 8-(thiophene-2-sulphonyl)-1-oxa-2,8-diaza-spiro[4,5]dec-2-ene-3-carboxylic acid 3-fluorobenzylamide]: 40%; for `Cc1ccc(S(=O)(=O)N2CCC3(CC2)CC(C(=O)N2CCN(C(=O)Cc4ccccc4)CC2)=NO3)cc1` [Example 25, 2-phenyl-1-{4-[8-(toluene-4-sulphonyl)-1-oxa-2,8-diaza-spiro[4,5]dec-2-ene-3 carbonyl]-piperazin-1-yl)-ethanone]: 51%.
The same measure, in the same setting: then `O=C(NC1CCN(Cc2ccc(C(F)(F)F)cc2)C1)C1=NOC2(CCN(S(=O)(=O)c3cccs3)CC2)C1` (centres unmarked) [Example 26, 8-(thiophene-2-sulphonyl)-1-oxa-2,8-diaza-spiro[4,5]dec-2-ene-3-carboxylic acid [1-(4-trifluoromethyl-benzyl)-pyrrolidin-3-yl]-amide], with 65%; and `Cc1ccc(S(=O)(=O)N2CCC3(CC2)CC(C(=O)N(CCC#N)Cc2ccccc2)=NO3)cc1` [Example 28, 8-(toluene-4-sulphonyl)-1-oxa-2,8-diaza-spiro[4,5]dec-2-ene-3-carboxylic acid benzyl-(2-cyano-ethyl)-amide], with 43%.
In the case of `O=C(C1=NOC2(CCN(S(=O)(=O)c3cc(Cl)ccc3Cl)CC2)C1)N1CCN(c2ncnc3sccc23)CC1` [Example 29], the “5HT-uptake, 10 μM, % inhibition” value is reported as 42%.
